Results: PubChem BioAssay (NCI)
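Values below derive from 48-hour exposures of cells grown in 96-well plates, with endpoints linearly interpolated between the two concentrations bracketing the appropriate inhibition level. At the TGI there is no net growth.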

Key:
Assay in all cases: growth of human tumour cells (NCI), 48 h
[1] = system: HL-60(TB) leukemia
[2] = system: NCI-H226 lung
[3] = system: MDA-MB-435
[4] = system: T-47D breast
[5] = system: K-562 leukemia
[6] = system: ACHN renal
[7] = system: NCI/ADR-RES ovarian
[8] = system: SNB-19 CNS
[9] = system: U251 CNS
[10] = system: CAKI-1 renal
[11] = system: SF-539 CNS
[12] = system: SK-MEL-5 melanoma
[13] = system: LOX IMVI melanoma

Structure (SMILES): COC(CNC(=O)CNC(=O)c1ccc(C(F)(F)F)cc1)OC
- TGI [1]: > 100 µM
- TGI [2]: > 100 µM
- TGI [3]: > 100 µM
- TGI [4]: > 100 µM
- TGI [5]: > 100 µM
- TGI [6]: > 100 µM
- TGI [7]: > 100 µM
- TGI [8]: > 100 µM
- TGI [9]: > 100 µM
- TGI [10]: > 100 µM
- TGI [11]: > 100 µM
- TGI [12]: > 100 µM

Structure (SMILES): Cn1c(N/N=C/c2ccccc2)nc(-c2ccc3c(c2)OCO3)c(C#N)c1=O
- TGI [1]: > 100 µM
- TGI [3]: > 100 µM
- TGI [4]: > 100 µM
- TGI [5]: > 100 µM
- TGI [6]: > 100 µM
- TGI [7]: > 100 µM
- TGI [8]: > 100 µM
- TGI [13]: > 100 µM
- TGI [9]: > 100 µM
- TGI [10]: > 100 µM
- TGI [11]: > 100 µM
- TGI [12]: > 100 µM

Structure (SMILES): CCO/C(O)=C(/C(=N)N1CCOCC1)C(=O)Nc1cccc(C(F)(F)F)c1
- TGI [1]: > 100 µM
- TGI [2]: > 100 µM
- TGI [3]: > 100 µM
- TGI [4]: > 100 µM
- TGI [5]: > 100 µM
- TGI [6]: > 100 µM
- TGI [7]: > 100 µM
- TGI [8]: > 100 µM
- TGI [13]: > 100 µM
- TGI [9]: > 100 µM
- TGI [10]: > 100 µM
- TGI [11]: > 100 µM

Structure (SMILES): COc1ccccc1C1C2=C(COC2=O)Oc2cc3c(cc21)OCO3 (stereo unspecified)
- TGI [1]: 11.6 µM
- TGI [2]: > 100 µM
- TGI [3]: 0.947 µM
- TGI [4]: > 100 µM
- TGI [5]: > 100 µM
- TGI [6]: > 100 µM
- TGI [7]: > 39.8 µM
- TGI [8]: 72.3 µM
- TGI [13]: > 100 µM
- TGI [9]: > 100 µM
- TGI [10]: > 100 µM
- TGI [11]: 5.32 µM
- TGI [12]: > 100 µM

Structure (SMILES): CC(=O)C(N1CCCCC1)C(O)(C(F)(F)F)C(F)(F)F (stereo unspecified)
- TGI [1]: > 100 µM
- TGI [2]: > 100 µM
- TGI [3]: > 100 µM
- TGI [4]: > 100 µM
- TGI [5]: > 100 µM
- TGI [6]: > 100 µM
- TGI [7]: > 100 µM
- TGI [8]: > 100 µM
- TGI [13]: > 100 µM
- TGI [9]: > 100 µM
- TGI [10]: > 100 µM
- TGI [11]: > 100 µM
- TGI [12]: > 100 µM

Structure (SMILES): CC12NC(=C(C#N)C#N)C(C#N)=C3NC(N)=C(C#N)C(=C31)Oc1ccccc12 (stereo unspecified)
- TGI [1]: > 74.9 µM
- TGI [2]: > 100 µM
- TGI [3]: > 100 µM
- TGI [4]: > 100 µM
- TGI [5]: > 100 µM
- TGI [6]: > 100 µM
- TGI [7]: > 100 µM
- TGI [8]: > 100 µM
- TGI [13]: > 100 µM
- TGI [9]: > 100 µM
- TGI [10]: > 100 µM
- TGI [11]: > 88.6 µM
- TGI [12]: > 22.9 µM

Structure (SMILES): O=C(O)c1cc(N=Nc2ccc([N+](=O)[O-])cc2)ccc1O
- TGI [1]: 73.7 µM
- TGI [2]: 79.4 µM
- TGI [3]: > 100 µM
- TGI [4]: > 100 µM
- TGI [5]: > 100 µM
- TGI [6]: > 100 µM
- TGI [7]: > 100 µM
- TGI [8]: > 100 µM
- TGI [13]: > 100 µM
- TGI [9]: 68.4 µM
- TGI [10]: > 100 µM
- TGI [11]: > 100 µM
- TGI [12]: > 100 µM

Structure (SMILES): Cc1ccc(Nc2c3c(c(C#N)c4nc5ccccc5n24)CCCC3)cc1
- TGI [1]: 25.5 µM
- TGI [2]: 62 µM
- TGI [3]: 45.8 µM
- TGI [4]: > 100 µM
- TGI [5]: > 100 µM
- TGI [6]: > 100 µM
- TGI [7]: 61.9 µM
- TGI [8]: > 100 µM
- TGI [13]: > 100 µM
- TGI [9]: > 100 µM
- TGI [10]: > 100 µM
- TGI [11]: 43.4 µM
- TGI [12]: 23.4 µM
